A short description of assay [1]: PTT in rats after oral administration. Particulars: 1 ml of 10%-20% solution, after 2-4 hours, around 20 sec. at time 0. The assay is classed as in vivo. An excerpt:
Moreover, since aluminon can be absorbed through the gastrointestinal tract, it can be used as an orally administratable anticoagulant (as opposed to heparin which has to be given by injection).

For assay [2], the system named is Bovine aortal smooth-muscle cells. The assay is described as follows: 3H thymidine incorporation in smooth muscle cells (resting, FGF- or thrombin-stimulated). Type of assay: cell-based. Particulars: for H³ thymidine incorporation per well (cpm. mean of duplicates) +FGF: FGF 250 ngr/ml, without aluminon 22,574; for H³ thymidine incorporation per well (cpm. mean of duplicates) +FGF / H³ thymidine incorporation per well (cpm. mean of duplicates) Control / H³ thymidine incorporation per well (cpm. mean of duplicates) +Thrombin: 2 days; for H³ thymidine incorporation per well (cpm. mean of duplicates) Control: resting cells, without aluminon 9.823; for H³ thymidine incorporation per well (cpm. mean of duplicates) +Thrombin: thrombin 10⁻⁶M, without aluminon 54,000. The method, then:
Bovine aortal smooth-muscle cells were grown in tissue culture plates in the presence of glucose-rich medium (H-21). The cultures (around 35x10³ cells/well in 24 wells' plates) were initially supplemented with 10% fetal calf serum (FCS) for 2-3 days. The cell nutrition was then replaced by a serum-deprived medium (H-21 plus 0.2% FCS) in order to test the effect of defined growth factors on the proliferation of smooth-muscle cells and their possible inhibition by the compounds with heparin-like activity.
In the following representative experiment, the cells transferred to the serum-deprived medium were grown in the presence of thrombin (10⁻⁶M) or FGF (partially purified from bovine brain, 250 ngr/ml). Various concentrations of aluminon were added to the thrombin or FGF-treated cells and to non-treated control cultures. ³H thymidine was also added to all wells for an incubation period of 2 days. The cultures were then harvested and the ³H thymidine incorporated into DNA was measured.

For assay [3], the target named is T1, ESb mouse lymphoma heparanase (Mus musculus, UniProt Q6YGZ1).
T1 construct: endogenous in cells; host or cells: ESb mouse lymphoma cells
T1 sequence (Q6YGZ1 150-535 limits assumed): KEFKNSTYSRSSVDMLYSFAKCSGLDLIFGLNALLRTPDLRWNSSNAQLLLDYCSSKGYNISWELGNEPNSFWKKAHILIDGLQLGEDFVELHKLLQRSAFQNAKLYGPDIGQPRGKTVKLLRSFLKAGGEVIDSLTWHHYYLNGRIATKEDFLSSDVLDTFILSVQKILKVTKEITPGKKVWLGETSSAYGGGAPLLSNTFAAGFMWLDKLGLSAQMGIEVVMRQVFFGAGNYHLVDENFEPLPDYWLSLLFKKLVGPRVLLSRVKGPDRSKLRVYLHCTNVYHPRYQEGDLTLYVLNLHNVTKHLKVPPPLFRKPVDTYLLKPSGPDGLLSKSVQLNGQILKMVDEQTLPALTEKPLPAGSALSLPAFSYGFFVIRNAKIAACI
T1 sequence (Q6YGZ1 28-101 limits assumed): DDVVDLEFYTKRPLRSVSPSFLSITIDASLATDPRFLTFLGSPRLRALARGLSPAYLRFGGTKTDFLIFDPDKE
The assay is described as follows: Inhibition of heparanase degradation of 35S-labelled ECM. The assay is classed as biochemical. Particulars: 10 µgr/ml, 24 hours; for Total low-mol-wt. HS fragments released by heparanase (cpm): control 17,756 cpm. The method, then:
The ability of several of the above mentioned compounds to inhibit lymphoma-cell derived heparanse was tested in the assay system described by Vlodavsky et al. (Cancer Research. 43: 2704-2711 (1983). ³⁵S labled ECM was incubated for 24 hours with ESb mouse lymphoma heparanase in the presence of 10 ugr ml of the indicated compounds. Degradation of the sulfated glycosaminoglycan was followed by gel filtration of the supernatants. Heparanase activity is expressed as the total amount of labled low-molecular-weight fragments released from the ECM substrate. The results are summarized in Table III. Table III

The test system of a further assay is normal pooled plasma. The assay is described as follows: Activated partial thromboplastin time (APTT) in normal pooled plasma. Particulars: Concentration 0.2 mg/mL; normal pooled plasma alone 25 - 28 sec. The assay is classed as biochemical. On the procedure: Measurement of Activated Partial Thromboplastin Time (APTT)
Utilizing the following procedure, the activated partial thromboplastin time (APTT) was measured for each of comparative compounds A-D:
To an assay cuvette was added 100 ul of normal pooled plasma (George King Biomedical Inc., Kansas) and 100 ul of a solution containing one of the above compounds in aqueous 50 mM Tris hydrochloride at pH 7.5 (0.2 mg of sample in one mL buffer). The sample was placed in a MLA coagulation timer which automatically maintained the sample at 37°C for 2.5 minutes, injected 100 ul of actin activated cephaloplastin reagent, kept 5 minutes, injected 100 ul of 3 mM CaCl, and the clot formation was determined photometrically and the time recorded.

Assay [4] can be described thus: Minimum concentration that significantly prolongs APTT versus standard buffer solution. Particulars: concentration at which the polymeric components of the dye significantly prolonged APTT versus standard buffer solution. Type of assay: biochemical.
The target of another assay is T2, lipoprotein lipase (LPL) (Rattus norvegicus, UniProt Q06000).
T2 construct: endogenous in cells; host or cells: F1 heart cell cultures from newborn rat hearts (mainly non-beating mesenchymal cells)
T2 sequence (Q06000 28-474): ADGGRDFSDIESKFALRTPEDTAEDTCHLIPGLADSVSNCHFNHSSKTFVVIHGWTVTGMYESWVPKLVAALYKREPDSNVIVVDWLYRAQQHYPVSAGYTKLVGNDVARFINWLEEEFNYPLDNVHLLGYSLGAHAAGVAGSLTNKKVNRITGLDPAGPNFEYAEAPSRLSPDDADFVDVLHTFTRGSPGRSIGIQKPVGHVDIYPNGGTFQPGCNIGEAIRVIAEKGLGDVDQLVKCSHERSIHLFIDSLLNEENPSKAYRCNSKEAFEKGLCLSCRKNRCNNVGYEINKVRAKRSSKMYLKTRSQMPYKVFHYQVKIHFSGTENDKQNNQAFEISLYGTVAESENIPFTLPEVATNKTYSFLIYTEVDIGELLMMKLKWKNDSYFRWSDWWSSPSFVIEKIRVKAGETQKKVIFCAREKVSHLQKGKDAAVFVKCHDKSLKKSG
Put plainly: LPL activity in cultured heart cells and their medium after 24 hrs incubation. The assay is classed as cell-based. Particulars: heart cells; for LPL activity: Total: control 3237; for LPL activity: Medium / LPL activity: Cells: mean±SEM of triplicates; for LPL activity: Medium: control 817±14; for LPL activity: Cells: control 2420±93. The method, then:
The enzyme LPL participate in the process of lipid transfer from the bloodstream to the tissues, LPL is bound to the external surface of cells via its association with cell-membrane glycosaminoglycans. Cultured heart cells is a powerful system in the study of the enzyme turn-over and the exploration of ways to manipulate its level since these cells are active in the biosynthesis of LPL, in addition to the surface binding of the enzyme.
F₁ heart cell cultures were prepared from newborn rat hearts as previously described (Chajek, T. et al., Biochem. Biophys. Acta 528, 456-474 (1978)). They consisted mainly of non-beating mesenchymal cells and were used 8-12 days after their isolation.
The enzyme activity was determined on aliquots of medium and of homogenates of cells which had been released from the petri dish with a rubber policeman in 1 ml of 0.025 M NH₃/NH₄Cl buffer (pH 8.1) containing 1 unit/ml of heparin. The assay system consisted of 0.1 ml of medium or 0.1 ml of cell homogenate ([…]) and 0.1 ml of substrate containing labeled triolein, prepared according to the method of Nilsson-Ehle and Schotz, (J. Lipid Res. 17, 536-541 (1976)). Incubations were carried out at 37°C for 45 min. The reaction was stopped by the addition of methanol/chloroform/heptane (1.4:1.25:1.v/v) and the extraction of fatty acids was performed according to the method of Belfrage and Vaughan (J. Lipid Res. 10, 341-344 (1969), as modified by Nilsson-Ehle and Schotz. Enzyme activity was calculated according to the formula of Nilsson-Ehle and Schotz.

Data on 15 molecules can be found in patent publication EP0354714A2, “Pharmaceutical compositions containing polyaromatic compounds” (HADASSAH MEDICAL ORGANIZATION, priority 1988, dated 1990).

As usually defined, the % Inhibition is the change of the read-out against control, counted positive when it falls.

As to `O=C(O)C1=CC(=C(c2ccc(O)c(C(=O)O)c2)c2ccc(O)c(C(=O)O)c2)C=CC1=O` [Aluminon, aurintricarboxylic acid], the PTT in assay [1] is above 200 s. In addition, the “H³ thymidine incorporation per well (cpm. mean of duplicates) +FGF” value in assay [2] (Aluminon 0.2 µgr/ml) was 22,256 cpm; in assay [2] (Aluminon 2 µgr/ml) it was 13,089 cpm; in assay [2] (Aluminon 10 µgr/ml), 6,846 cpm; in assay [2] (Aluminon 20 µgr/ml), 6,745 cpm. Further, the “H³ thymidine incorporation per well (cpm. mean of duplicates) Control” value in assay [2] (Aluminon 0.2 µgr/ml) was 8,425 cpm; in assay [2] (Aluminon 2 µgr/ml), 5,120 cpm; in assay [2] (Aluminon 10 µgr/ml), 4,105 cpm; in assay [2] (Aluminon 20 µgr/ml), 4,343 cpm. The “H³ thymidine incorporation per well (cpm. mean of duplicates) +Thrombin” value is on record as 46,857 cpm in assay [2] (Aluminon 0.2 µgr/ml), 14,064 cpm in assay [2] (Aluminon 2 µgr/ml), 6,877 cpm in assay [2] (Aluminon 10 µgr/ml) and 5,705 cpm in assay [2] (Aluminon 20 µgr/ml). Moreover, the inhibition entry in assay [2] (aluminon concentration of 2 µgr/ml (∼4x10⁻⁶M)) was “More than 40%”. For the same molecule, in assay [3], the “% Inhibition” value was determined as 78%.

Regarding `O=C(O)C1=CC(=C(c2ccc(O)c(C(=O)O)c2)c2ccc(O)c(C(=O)O)c2)C=CC1=O` [Comparative Compound C], the “APTT” value in the assay with normal pooled plasma is 28 s.

Take `CN(C)c1ccc(C(=C2C=CC(=[N+](C)C)C=C2)c2ccc(N(C)C)cc2)cc1` [Crystal Violet]: the “Minimum Final Concentration” value in assay [4] came out at 8.3 µg/mL.

Consider `CCN(CC)c1ccc(C(=C2C=CC(=[N+](CC)CC)C=C2)c2ccc(N(CC)CC)cc2)cc1.[Cl-]` [Ethyl Violet], for which the “Minimum Final Concentration” value in assay [4] stood at 50.0 µg/mL.

As for `Cc1cc(-c2ccc(/N=N/c3ccc4c(S(=O)(=O)[O-])cc(S(=O)(=O)[O-])c(N)c4c3O)c(C)c2)ccc1/N=N/c1ccc2c(S(=O)(=O)[O-])cc(S(=O)(=O)[O-])c(N)c2c1O.[Na+].[Na+].[Na+].[Na+]` [Evan's Blue], in assay [3], the “% Inhibition” value was 60% and the “Total low-mol-wt. HS fragments released by heparanase (cpm)” value (from here on “Total low-mol-wt. HS fragments released”) is given as 6,986 cpm. In addition, at lipoprotein lipase (LPL) (Evan's Blue 10⁻³ M), the “% increase in the total” value is on record as “+139.4%”, the “LPL activity: Total” value turned out to be 7749 m mole FFA/h/dish, the “LPL activity: Medium” value came out at 6051±435 m mole FFA/h/dish and the “LPL activity: Cells” value is on record as 1698±184 m mole FFA/h/dish. At lipoprotein lipase (LPL) (Evan's Blue 10⁻⁴ M), the “% increase in the total” value is “+61.6%”, the “LPL activity: Total” value was determined as 5230 m mole FFA/h/dish, the “LPL activity: Medium” value came out at 2783±194 m mole FFA/h/dish and the “LPL activity: Cells” value is 2447±48 m mole FFA/h/dish. On lipoprotein lipase (LPL) (Evan's Blue 10⁻⁵ M), the “% increase in the total” value is given as “+32.5%”, the “LPL activity: Total” value is 4288 m mole FFA/h/dish, the “LPL activity: Medium” value was found to be 1531±182 m mole FFA/h/dish and the “LPL activity: Cells” value is recorded as 2757±114 m mole FFA/h/dish.

Consider `CCN(Cc1cccc(S(=O)(=O)O)c1)c1ccc(C(=C2C=CC(=[N+](CC)Cc3cccc(S(=O)(=O)O)c3)C=C2)c2ccc(O)cc2S(=O)(=O)[O-])cc1` [Fast Green], for which, in assay [3], the “% Inhibition” value came out at 32% and the “Total low-mol-wt. HS fragments released” value is on record as 12,139 cpm.

Consider `CN(C)c1ccc(C(=C2C=CC(=[N+](C)C)C=C2)c2ccccc2)cc1` [Malachite Green], for which the “Minimum Final Concentration” value in assay [4] was determined as 150.0 µg/mL.

For `O=S(=O)(O)c1ccc(N=C2C=CC(=C(c3ccc(Nc4ccc(S(=O)(=O)O)cc4)cc3)c3ccc(Nc4ccc(S(=O)(=O)O)cc4)cc3)C=C2)cc1` [Methyl Blue], in assay [4], the “Minimum Final Concentration” value worked out at 100.0 µg/mL. Moreover, in assay [3], the “% Inhibition” value stood at 23% and the “Total low-mol-wt. HS fragments released” value is listed as 13,676 cpm.

For `CN(C)c1ccc(C(=C2C=CC(=[N+](C)C)C=C2)c2ccc([N+](C)(C)C)cc2)cc1.[Cl-].[Cl-]` [Methyl Green], the “Minimum Final Concentration” value in assay [4] worked out at 50.0 µg/mL.

On to `Cc1cc(C(=C2C=CC(=N)C=C2)c2ccc(N)cc2)ccc1N` [Rosaniline Chloride], for which, in assay [4], the “Minimum Final Concentration” value was found to be 12.5 µg/mL.

In the case of `Cc1cc2nc3cc(C)c(N)cc3[n+](-c3ccccc3)c2cc1N.[Cl-]` [Safranin O], the “Minimum Final Concentration” value in assay [4] was determined as 150.0 µg/mL.

Turning to Aniline Blue, the “Minimum Final Concentration” value in assay [4] is 150.0 µg/mL.

With Basic Fuchsin, in assay [4], the “Minimum Final Concentration” value is 50.0 µg/mL.

With Brilliant Cresyl Blue, the “Minimum Final Concentration” value in assay [4] was 150.0 µg/mL.

Take Methyl Violet: the “Minimum Final Concentration” value in assay [4] stood at 75.0 µg/mL.
